Here are results for 2 compounds from article PMC9286713 (CPT: Pharmacometrics & Systems Pharmacology, 2022).

In brackets after ≈: the same amount, converted by molar mass. Where two headings read alike, the source gives them in different places.

For data set [1] the following is noted: human ADME study (unpublished data); cited from earlier work.
The nature of data set [2]: logP determination. The format is physicochemical.
For data set [3] the following is noted: patients with cancer, cited from earlier work; for Observed AUCss,0–24: geometric mean.
Data set [4] is described as follows: Solubility‐pH profile in buffers at 37°C. It is filed as physicochemical.
Data set [5] deals with T1, OCT2 (Homo sapiens, UniProt O15244).
T1 sequence (O15244 1-555): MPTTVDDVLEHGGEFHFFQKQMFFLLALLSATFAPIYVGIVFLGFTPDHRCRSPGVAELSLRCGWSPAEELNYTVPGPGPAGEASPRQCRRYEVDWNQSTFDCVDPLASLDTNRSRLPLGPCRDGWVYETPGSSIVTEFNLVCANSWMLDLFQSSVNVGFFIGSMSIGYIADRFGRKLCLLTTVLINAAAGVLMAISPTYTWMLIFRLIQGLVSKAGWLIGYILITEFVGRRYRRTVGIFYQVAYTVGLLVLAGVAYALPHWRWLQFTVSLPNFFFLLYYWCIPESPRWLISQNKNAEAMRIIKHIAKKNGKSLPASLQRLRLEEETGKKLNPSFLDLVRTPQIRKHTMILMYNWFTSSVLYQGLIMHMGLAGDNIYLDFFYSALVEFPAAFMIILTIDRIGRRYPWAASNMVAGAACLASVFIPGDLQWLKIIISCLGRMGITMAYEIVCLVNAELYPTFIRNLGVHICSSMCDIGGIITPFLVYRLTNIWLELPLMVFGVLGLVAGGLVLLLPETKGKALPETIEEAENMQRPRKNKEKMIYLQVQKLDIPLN
Put plainly: OCT2 inhibition.

The conditions of data set [6]: cited from earlier work; for Observed AUC0–∞: geometric mean.
The conditions of data set [7]: cited from earlier work.
The target of data set [8] is P‐gp (Homo sapiens, UniProt P08183). Nature of the data set: P‐gp inhibition.
P‐gp, sequence (P08183 whole entry): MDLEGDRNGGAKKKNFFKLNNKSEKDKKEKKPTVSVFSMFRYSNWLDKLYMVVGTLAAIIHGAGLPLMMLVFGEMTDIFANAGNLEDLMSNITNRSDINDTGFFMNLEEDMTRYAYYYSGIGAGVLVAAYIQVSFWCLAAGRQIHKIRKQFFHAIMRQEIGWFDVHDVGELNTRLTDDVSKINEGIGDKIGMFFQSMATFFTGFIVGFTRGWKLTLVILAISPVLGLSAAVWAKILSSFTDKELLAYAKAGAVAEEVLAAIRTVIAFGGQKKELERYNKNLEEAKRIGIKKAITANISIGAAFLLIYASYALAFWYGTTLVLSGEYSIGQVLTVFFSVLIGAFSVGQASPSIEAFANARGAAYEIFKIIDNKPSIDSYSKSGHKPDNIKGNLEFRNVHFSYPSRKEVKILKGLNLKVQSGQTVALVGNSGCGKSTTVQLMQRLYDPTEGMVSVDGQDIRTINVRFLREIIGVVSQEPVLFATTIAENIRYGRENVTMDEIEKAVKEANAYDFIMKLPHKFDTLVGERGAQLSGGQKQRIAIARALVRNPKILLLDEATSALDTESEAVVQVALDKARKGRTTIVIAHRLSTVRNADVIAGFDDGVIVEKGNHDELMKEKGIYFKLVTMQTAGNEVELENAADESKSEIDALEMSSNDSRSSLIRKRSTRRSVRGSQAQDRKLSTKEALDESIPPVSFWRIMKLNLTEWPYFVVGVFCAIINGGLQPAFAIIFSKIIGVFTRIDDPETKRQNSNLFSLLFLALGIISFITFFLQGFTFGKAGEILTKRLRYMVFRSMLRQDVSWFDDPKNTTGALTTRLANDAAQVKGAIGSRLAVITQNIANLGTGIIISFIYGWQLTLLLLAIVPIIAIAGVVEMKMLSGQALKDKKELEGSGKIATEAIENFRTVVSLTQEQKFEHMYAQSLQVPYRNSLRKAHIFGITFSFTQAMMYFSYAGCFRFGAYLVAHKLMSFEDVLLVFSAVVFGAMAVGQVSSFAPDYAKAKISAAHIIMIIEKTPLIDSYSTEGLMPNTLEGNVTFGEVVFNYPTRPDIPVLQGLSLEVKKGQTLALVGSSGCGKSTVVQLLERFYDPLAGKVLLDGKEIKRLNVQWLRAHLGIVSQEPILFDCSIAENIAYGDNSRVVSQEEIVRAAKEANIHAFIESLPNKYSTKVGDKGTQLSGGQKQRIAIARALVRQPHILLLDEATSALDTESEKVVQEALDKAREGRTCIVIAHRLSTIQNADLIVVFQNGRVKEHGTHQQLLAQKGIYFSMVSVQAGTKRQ
The target of data set [9] is T2, MATE1 (Homo sapiens, UniProt Q96FL8).
T2 sequence (Q96FL8 1-570): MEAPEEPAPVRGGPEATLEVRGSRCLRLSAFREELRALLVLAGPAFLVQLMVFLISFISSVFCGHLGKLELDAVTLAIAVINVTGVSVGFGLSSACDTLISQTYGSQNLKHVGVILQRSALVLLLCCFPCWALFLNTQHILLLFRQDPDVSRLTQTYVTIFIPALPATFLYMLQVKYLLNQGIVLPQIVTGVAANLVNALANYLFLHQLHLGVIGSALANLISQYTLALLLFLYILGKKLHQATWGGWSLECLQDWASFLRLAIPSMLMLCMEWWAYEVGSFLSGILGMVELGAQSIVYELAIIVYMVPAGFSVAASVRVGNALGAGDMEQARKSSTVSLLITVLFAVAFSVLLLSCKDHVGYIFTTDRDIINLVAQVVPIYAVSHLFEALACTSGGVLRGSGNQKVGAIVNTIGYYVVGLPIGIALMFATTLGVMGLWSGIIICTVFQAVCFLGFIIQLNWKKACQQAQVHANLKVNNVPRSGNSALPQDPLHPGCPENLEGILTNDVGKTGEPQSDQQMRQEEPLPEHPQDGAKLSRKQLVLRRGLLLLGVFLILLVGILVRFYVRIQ
Nature of the data set: MATE1 inhibition. It is filed as in vitro ADME.

The conditions of data set [10]: fed state; cited from earlier work.
The target of data set [11] is P‐glycoprotein (P‐gp) (Homo sapiens, UniProt P08183). Nature of the data set: In vitro transport study, pemigatinib as substrate: P‐gp mediated efflux. Particulars: data on file. It is filed as in vitro ADME.
P‐glycoprotein (P‐gp), sequence (P08183 whole entry): as the sequence (P08183 whole entry) above
A short description of data set [12]: Blood/plasma ratio. It is filed as in vitro ADME. Particulars: blood and plasma.
Data set [13] can be described thus: Human mass balance / ADME study in healthy participants. It is filed as in vivo.
Data set [14] in a line: pKa determination. The format is physicochemical.
The mark [15] stands for this setting: healthy participants, unpublished data.

With `CCN1C(=O)N(c2c(F)c(O)cc(OC)c2F)Cc2cnc3[nH]c(CN4CCOCC4)cc3c21` [M2, O‐desmethyl‐pemigatinib], the “Metabolite burden in urine and feces derived from M2 and its secondary metabolites” value in data set [1] is on record as 76.9%.

Broadly, the logP is a log measure of how a compound divides between an organic and an aqueous phase. One may read the solubility as the dissolved amount per volume that the medium holds. Low values mean a poorly soluble substance, high ones a readily soluble substance. By IC50 is commonly meant the concentration at which inhibition is half-maximal. For orientation: pKa means the negative logarithm of the acid dissociation constant. Compound `CCN1C(=O)N(c2c(F)c(OC)cc(OC)c2F)Cc2cnc3[nH]c(CN4CCOCC4)cc3c21` [pemigatinib, Pemigatinib] returned a logP in [2] of 2.2. Moreover, the “Observed AUCss,0–24” value in data set [3] (multiple oral doses 6 mg) is 1.05 µM·h; in [3] (multiple oral doses 9 mg) it was 1.67 µM·h. The “Terminal half‐life” value in data set [3] (oral dosing) was ~ 15 h. Also, the “CLpo (oral clearance)” value in [3] (phase I study) is recorded as 12.0 L/h; in [6] (pemigatinib alone cohort of itraconazole DDI study, healthy volunteers) it was 14.5 L/h. Moreover, the “Apparent volume of distribution, geometric mean” value in data set [3] is 173 to 244 L. Also, in data set [3], the “SS oral clearance, geometric mean” value is 9.88 to 11.7 L/h. For the same compound, the solubility in data set [4] (buffer, 37 °C, pH 1.2, aqueous buffer, Solubility, pH 1.2 buffer) was ~710 µg/mL (≈ 1460 µM); in [4] (buffer, 37 °C, pH 2, aqueous buffer, Solubility, pH 2.0 buffer), 650 µg/mL (≈ 1330 µM); in [4] (buffer, 37 °C, pH 6.5, aqueous buffer, Solubility, pH 6.5 buffer) it was < 1 µg/mL; in [4] (buffer, 37 °C, pH 7.4, aqueous buffer, Solubility, pH 7.4 buffer) it was < 1 µg/mL; in data set [4] (buffer, pH 3.3, Solubility, pH 3.3), 200 µg/mL (≈ 410 µM); in data set [4] (buffer, pH 4.3, Solubility, pH 4.3), 30 µg/mL (≈ 61.5 µM). The solubility in data set [4] (buffer, pH 5.3, Solubility, pH 5.3) came to 1 µg/mL (≈ 2.05 µM); in data set [4] (pH 1.2 buffer, 37°C) it was 710 µg/mL (≈ 1460 µM). Besides, the IC50 in [5] came out at 0.075 µM; in data set [8] it was 4.8 µM; in [9] it was 1.1 µM. Moreover, the “Increase in pemigatinib AUC” value in [6] (itraconazole coadministration) is ~90%. Further, the “Increase in pemigatinib Cmax” value in [6] (itraconazole coadministration) is given as ~20%. Further, the “Decrease in half‐life of pemigatinib” value in data set [6] (rifampin coadministration) is given as 63%. Besides, the “Decrease in pemigatinib AUC” value in [6] (rifampin coadministration) is reported as 85%. The “Observed AUC0–∞” value was 0.672 µM·h in [6] (single oral dose 4.5 mg, healthy volunteers) and 1.96 µM·h in [6] (single oral dose 13.5 mg, healthy volunteers). In data set [7] (coadministration with esomeprazole), the “Decrease of geometric mean AUC of pemigatinib” value was 8%. Besides, the “Decrease of geometric mean Cmax of pemigatinib” value in [7] (coadministration with histamine‐2 antagonist ranitidine) is on record as 2%; in [7] (coadministration with proton pump inhibitor esomeprazole) it was 35%. Moreover, the “Increase of geometric mean AUC of pemigatinib” value in [7] (coadministration with ranitidine) is on record as 3%. The “Decrease of geometric mean Cmax” value in data set [10] was 18%. The “Increase of geometric mean AUC0–24 at SS” value in [10] was 11%. Besides, in data set [11], the “Concentration at which P‐gp mediated efflux was saturated” value was 1000 nM. Further, the blood plasma ratio in [12] amounted to 0.96. For the same compound, the “Total radioactivity excreted in feces” value in [13] (setting [15]) was found to be 82.4%. Further, the “Total radioactivity excreted in urine” value in data set [13] (setting [15]) is 12.6%. In addition, in [13] (human ADME study), the Radioactivity blood/plasma value amounted to 0.80. Also, the CL renal in data set [13] (human, urine, oral) is ~3.33 mL/min. For the same compound, the “Administered radioactive dose recovered as unchanged pemigatinib in feces” value in data set [13] (in vivo) came to 1.4%. In data set [13] (in vivo), the “Dose excreted in urine as unchanged pemigatinib (renal excretion)” value was ~ 1%. The Compound type entry in [14] was “Diprotic base”. Also, the pKa in [14] (first printed pKa of the diprotic base) stood at 5.7; in data set [14] (second printed pKa of the diprotic base) it was 3.1. Also, the “Total radioactivity accounted for by known metabolites” value in [1] is 72%.
